These results are taken from patent US20250051324A1, “PARP INHIBITOR, PHARMACEUTICAL COMPOSITION COMPRISING SAME, AND USE THEREOF” (KEYTHERA (SUZHOU) BIO-PHARMACEUTICALS CO., LIMITED, priority 2021, published 2025).

Chain of PARP1 (P09874 whole entry): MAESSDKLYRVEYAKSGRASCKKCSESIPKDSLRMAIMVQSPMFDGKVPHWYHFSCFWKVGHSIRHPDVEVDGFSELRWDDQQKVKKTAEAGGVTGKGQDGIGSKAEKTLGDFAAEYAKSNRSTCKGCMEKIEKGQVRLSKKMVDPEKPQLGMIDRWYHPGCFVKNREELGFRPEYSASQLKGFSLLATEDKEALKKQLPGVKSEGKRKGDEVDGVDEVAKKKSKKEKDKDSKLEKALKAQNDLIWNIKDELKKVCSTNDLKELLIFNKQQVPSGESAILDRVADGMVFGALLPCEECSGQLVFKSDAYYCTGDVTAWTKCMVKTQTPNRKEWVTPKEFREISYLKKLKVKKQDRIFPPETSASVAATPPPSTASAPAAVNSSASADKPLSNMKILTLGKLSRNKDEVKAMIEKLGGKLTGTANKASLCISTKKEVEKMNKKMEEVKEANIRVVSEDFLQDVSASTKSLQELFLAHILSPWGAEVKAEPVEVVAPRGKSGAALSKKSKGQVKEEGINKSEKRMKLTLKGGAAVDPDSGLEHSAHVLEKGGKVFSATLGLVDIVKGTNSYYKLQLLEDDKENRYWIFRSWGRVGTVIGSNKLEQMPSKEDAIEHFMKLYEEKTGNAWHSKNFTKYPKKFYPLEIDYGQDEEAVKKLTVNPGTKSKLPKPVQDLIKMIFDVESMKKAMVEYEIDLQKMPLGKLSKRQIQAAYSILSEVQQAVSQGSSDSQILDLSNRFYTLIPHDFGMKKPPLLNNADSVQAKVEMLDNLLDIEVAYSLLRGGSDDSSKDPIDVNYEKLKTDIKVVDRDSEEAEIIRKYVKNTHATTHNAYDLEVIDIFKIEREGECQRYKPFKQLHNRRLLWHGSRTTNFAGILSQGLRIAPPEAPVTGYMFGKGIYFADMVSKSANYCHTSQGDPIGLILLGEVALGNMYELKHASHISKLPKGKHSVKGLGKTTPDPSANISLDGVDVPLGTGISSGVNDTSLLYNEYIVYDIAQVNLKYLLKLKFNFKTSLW

For the first series, the target named is PARP1 (Homo sapiens (Human), UniProt P09874). Nature of the series: PARP enzyme activity assay (PARP1 chemiluminescent assay kit). To be noted: enzyme inhibitory activity, read-out: PARP-1 IC50. The class given is biochemical. The text has this:
Experimental Materials: The PARP1 assay kit was purchased from BPS Bioscience, USA, specifically the 384-well chemiluminescent assay kit (Catalog No.: #80551).
Experimental Principle: PARP can catalyze the transfer of ADP-ribose residues from NAD+ to target substrates, thereby modifying proteins through ribosylation. This experiment measures PARP1 enzyme activity by detecting the poly(ADP-ribosylation) of histones by PARP1.
Preparation of Reagents and Test Compounds: The 10× assay buffer included in the kit was diluted to 1× with distilled water. The test compound (stock concentration of 10 mM) was diluted to 10 μM with a DMSO solution and then serially diluted in a 1:3 ratio. The serially diluted compounds were further diluted 10-fold with the 1× assay buffer.
Experimental Method: The procedure was carried out according to the kit's instructions:
1. The 5× histone mixture was diluted to 1× with PBS, and 25 μL was added to each well of a 384-well plate, incubating overnight at 4° C.
2. After incubation, 100 μL of PBST (0.05% Tween 20) was added to each well for washing, repeated three times. Then, 100 μL of blocking solution was added to each well and incubated at room temperature for 90 minutes.
3. After incubation, the wells were washed three times with PBST, and then 1.25 μL of 10× assay buffer, 1.25 μL of 10×PARP assay mixture, 2.5 μL of activation DNA (5×), and 7.5 μL of distilled water were added to each well.
4. […] The positive control group and the negative control group were added with 1× assay buffer containing the same concentration of DMSO.
5. Next, 10 μL of 2.5 ng/μL PARP1 enzyme was added to the test compound and positive control groups, while 10 μL of 1× assay buffer was added to the negative control group, and the mixture was incubated at room temperature for 60 minutes.
6. Streptavidin-HRP was diluted 1:50 with the blocking solution. After incubation, the plate was washed three times with PBST, and 25 μL of the diluted streptavidin-HRP solution was added to each well, incubating at room temperature for 30 minutes.
7. After incubation, the plate was washed three times with PBST, and 50 μL of the mixed substrate A and substrate B in equal volumes was added. The luminescence signal was immediately read on a Synergy HTX multi-mode reader.
8. Data analysis was performed using GraphPad Prism 8.0 software. The inhibition rate %=100*(average luminescence signal of the positive control group−luminescence signal of the compound)/(average luminescence signal of the positive control group−average luminescence signal of the negative control group). The IC50 value was obtained by plotting the logarithm of the compound concentration against the percentage inhibition rate.
As to `Cc1c(C(F)(F)F)c(=O)[nH]c2cc(CN3CCN(c4ncc(C(F)(F)F)cn4)CC3)cnc12` [Compound 19, 4-methyl-3-(trifluoromethyl)-7-((4-(5-(trifluoromethyl)pyrimidin-2-yl)piperazin-1-yl)methyl)-1,5-naphthyridin-2(1H)-one], the IC50 turned out to be 5.48 nM. As to `CNC(=O)c1ccc(N2CC3CCC(C2)N3Cc2cnc3c(C)c(C(F)(F)F)c(=O)[nH]c3c2)cn1` [Compound 12, N-methyl-5-(8-((8-methyl-6-oxo-7-(trifluoromethyl)-5,6-dihydro-1,5-naphthyridin-3-yl)methyl)-3,8-diazabicyclo[3.2.1]octan-3-yl)picolinamide], the IC50 came to 2.25 nM. The same measure, in the same setting: the figure for `CNC(=O)c1ccc(N2CCN(Cc3cnc4c(C)c(C(F)(F)F)c(=O)[nH]c4c3)C(CO)C2)cn1` (stereo not drawn) [Compound 6, 5-(3-(hydroxymethyl)-4-((8-methyl-6-oxo-7-(trifluoromethyl)-5,6-dihydro-1,5-naphthyridin-3-yl)methyl)piperazin-1-yl)-N-methylpicolinamide] is 34.3 nM.

For a further series, the system named is MDA-MB-436 breast cancer cells. The series is described as follows: Cell proliferation assay, MDA-MB-436. It counts as cell-based. The note with it: Homo sapiens, MDA-MB-436, 168 h; proliferation, 7 days; read-out: MDA-MB-436 Cell IC50. As to the method:
Experimental Materials: MDA-MB-436 or UWB1.289 cell lines were purchased from Cobioer Biosciences Co. Ltd. (Nanjing, China). The STR identification results were a complete match, and mycoplasma testing was negative. MDA-MB-436 cells were cultured in DMEM complete medium containing 10% fetal bovine serum, 1% penicillin-streptomycin, 1% insulin, and 16 μg/mL glutathione; UWB1.289 cells were cultured in RMPI1640 complete medium containing 10% fetal bovine serum and 1% penicillin-streptomycin.
1. MDA-MB-436 or UWB1.289 cells were cultured in the aforementioned medium (culture conditions: 37° C., 5.0% CO2 in air) until they reached the logarithmic growth phase. The cells were then digested with trypsin containing 0.25% EDTA, centrifuged at 1000 rpm, and the supernatant was discarded. Cell culture medium was added, and the cell suspension was adjusted to 2×10^4/mL after counting. 135 μL of the cell suspension per well was taken and cultured in a 96-well cell culture plate for 16 hours (culture conditions: 37° C., 5.0% CO2 in air).
2. The test compounds, stored at a concentration of 10 mM, were diluted 2.5 times with DMSO and then serially diluted in a 1:3 gradient (9 gradients). The gradient-diluted samples were further diluted 40 times with serum-free medium, and 15 μL of each was added to the 96-well cell culture plate. The positive control group received serum-free medium containing the same concentration of DMSO, and the negative control group received medium without cells. The cells were then cultured for an additional 7 days.
3. After the culture period, the cell culture plate was placed at room temperature for 30 minutes. Then, 100 μL of CellCounting-Lite 2.0 reagent (Vazyme, #DD1101) was added to each well, mixed thoroughly, and incubated in the dark at room temperature for 10 minutes. The luminescence signal was read using a Synergy HTX multi-mode reader.
4. Data analysis was performed using GraphPad Prism 8.0 software. The inhibition rate (%) was calculated as 100*(average luminescence signal of the positive control group−luminescence signal of the compound)/(average luminescence signal of the positive control group−average luminescence signal of the negative control group). The IC50 value was obtained by plotting the logarithm of the compound concentration against the percentage inhibition rate.
Take `CCNC(=O)c1ccc(N2CCN(Cc3cnc4c(C)c(C(F)(F)F)c(=O)[nH]c4c3)CC2)cn1` [Compound 98, N-ethyl-5-(4-((8-methyl-6-oxo-7-(trifluoromethyl)-5,6-dihydro-1,5-naphthyridin-3-yl)methyl)piperazin-1-yl)picolinamide]: the IC50 came out at 1.22 nM. Same read-out and setting: the figure for `CNC(=O)c1ccc(N2CCN(Cc3ccc4c(F)c(C)c(=O)[nH]c4c3)CC2)cn1` [Compound 94, 5-(4-((4-fluoro-3-methyl-2-oxo-1,2-dihydroquinolin-7-yl)methyl)piperazin-1-yl)-N-methylpicolinamide] is 5.69 nM. Regarding `CNC(=O)c1ccc(C2=C(C)CN(Cc3cnc4c(C)c(C(F)(F)F)c(=O)[nH]c4c3)CC2)cn1` [Compound 81, N,5′-dimethyl-1′-((8-methyl-6-oxo-7-(trifluoromethyl)-5,6-dihydro-1,5-naphthyridin-3-yl)methyl)-1′,2′,3′,6′-tetrahydro-[3,4′-bipyridine]-6-carboxamide], the IC50 stood at 13.2 nM. Still for that read-out and setting: the figure for `CNC(=O)c1ccc(N2CCN(Cc3cnc4c(C)c(C(F)(F)F)c(=O)[nH]c4c3F)CC2)cn1` [Compound 101, 5-(4-((4-fluoro-8-methyl-6-oxo-7-(trifluoromethyl)-5,6-dihydro-1,5-naphthyridin-3-yl)methyl)piperazin-1-yl)-N-methylpicolinamide] is 8.99 nM; for `Cc1c(C(F)(F)F)c(=O)[nH]c2cc(CN3CCN(c4ccc(C(=O)NCCO)nc4)CC3)cnc12` [Compound 96, N-(2-hydroxyethyl)-5-(4-((8-methyl-6-oxo-7-(trifluoromethyl)-5,6-dihydro-1,5-naphthyridin-3-yl)methyl)piperazin-1-yl)picolinamide] it is 9.34 nM. As to `Cc1c(C(F)(F)F)c(=O)[nH]c2cc(CN3CCN(c4ccc(C(=O)NCC(F)(F)F)nc4)CC3)cnc12` [Compound 97, 5-(4-((8-methyl-6-oxo-7-(trifluoromethyl)-5,6-dihydro-1,5-naphthyridin-3-yl)methyl)piperazin-1-yl)-N-(2,2,2-trifluoroethyl)picolinamide], the IC50 was 2.12 nM. The same measure, in the same setting: the figure for `CNC(=O)c1ccc(N2CCN(Cc3cnc4c(C)c(C(F)F)c(=O)[nH]c4c3)[C@H](C)C2)cn1` [Compound 104, (R)-5-(4-((7-(difluoromethyl)-8-methyl-6-oxo-5,6-dihydro-1,5-naphthyridin-3-yl)methyl)-3-methylpiperazin-1-yl)-N-methylpicolinamide] is 6.5 nM; for `CNC(=O)c1ccc(C2=CCN(Cc3cnc4c(C)c(C(F)(F)F)c(=O)[nH]c4c3)CC2)nc1` [Compound 82, N-methyl-1′-((8-methyl-6-oxo-7-(trifluoromethyl)-5,6-dihydro-1,5-naphthyridin-3-yl)methyl)-1′,2′,3′,6′-tetrahydro-[2,4′-bipyridine]-5-carboxamide] it is 5.83 nM. The same measure, in the same setting: the result for `CNC(=O)c1ccc(N2CCN(Cc3cnc4c(C)c(C(F)(F)F)c(=O)[nH]c4c3)C[C@H]2C#N)cn1` [Compound 86, (S)-5-(2-cyano-4-((8-methyl-6-oxo-7-(trifluoromethyl)-5,6-dihydro-1,5-naphthyridin-3-yl)methyl)piperazin-1-yl)-N-methylpicolinamide] reads 14.8 nM.

With `CNC(=O)c1ccc(C2=CCN(Cc3cnc4c(C)c(C(F)F)c(=O)[nH]c4c3)CC2)cn1` [Compound 106, 1′-((7-(difluoromethyl)-8-methyl-6-oxo-5,6-dihydro-1,5-naphthyridin-3-yl)methyl)-N-methyl-1′,2′,3′,6′-tetrahydro-[3,4′-bipyridine]-6-carboxamide], the IC50 was 0.78 nM. Still for that read-out and setting: the result for `CNC(=O)c1ccc(N2CCN(Cc3cnc4c(C)c(C(F)(F)F)c(=O)[nH]c4c3)CC2CC#N)cn1` (stereo not drawn) [Compound 73, 5-(2-(cyanomethyl)-4-((8-methyl-6-oxo-7-(trifluoromethyl)-5,6-dihydro-1,5-naphthyridin-3-yl)methyl)piperazin-1-yl)-N-methylpicolinamide] reads 14.5 nM. Same read-out and setting: the figure for `CNC(=O)c1ccc(N2CCN(Cc3cnc4c(F)c(C)c(=O)[nH]c4c3)CC2)cn1` [Compound 103, 5-(4-((8-fluoro-7-methyl-6-oxo-5,6-dihydro-1,5-naphthyridin-3-yl)methyl)piperazin-1-yl)-N-methylpicolinamide] is 3.76 nM. Still for that read-out and setting: the result for `CNC(=O)c1ccc(C2=CCN(Cc3cnc4c(C)c(C(F)(F)F)c(=O)[nH]c4c3)CC2C)cn1` (stereo not drawn) [Compound 80, N,3′-dimethyl-1′-((8-methyl-6-oxo-7-(trifluoromethyl)-5,6-dihydro-1,5-naphthyridin-3-yl)methyl)-1′,2′,3′,6′-tetrahydro-[3,4′-bipyridine]-6-carboxamide] reads 13.9 nM; that for `[2H]C([2H])([2H])NC(=O)c1ccc(N2CCN(Cc3cnc4c(C)c(C(F)(F)F)c(=O)[nH]c4c3)CC2)cn1` [Compound 95, N-(methyl-ds)-5-(4-((8-methyl-6-oxo-7-(trifluoromethyl)-5,6-dihydro-1,5-naphthyridin-3-yl)methyl)piperazin-1-yl)picolinamide], 2.13 nM. Take `CNC(=O)c1ccc(N2CCN(Cc3cnc4c(C)c(C(F)F)c(=O)[nH]c4c3)C[C@H]2C)cn1` [Compound 105, (R)-5-(4-((7-(difluoromethyl)-8-methyl-6-oxo-5,6-dihydro-1,5-naphthyridin-3-yl)methyl)-2-methylpiperazin-1-yl)-N-methylpicolinamide]: the IC50 came out at 4.93 nM.

System in a further series: not listed separately
The series is described as follows: Evaluation of pharmacokinetics in mice. The note with it: male, ICR (CD1), mouse, plasma, po, 10 mg/kg.
`[2H]C([2H])([2H])NC(=O)c1ccc(N2CCN(Cc3cnc4c(C)c(C(F)(F)F)c(=O)[nH]c4c3)CC2)cn1` [Compound 95, N-(methyl-ds)-5-(4-((8-methyl-6-oxo-7-(trifluoromethyl)-5,6-dihydro-1,5-naphthyridin-3-yl)methyl)piperazin-1-yl)picolinamide] had an AUC(0-inf) of 2050 µg·h/mL, a Cmax of 37500 ng/mL and a half-life of 38 h.
